We go through 2 compounds from patent publication US20030061671A1, “Thioxanthone dyes with improved solubility and a method of preparing 2-oxybenzanthrones as intermediate materials for making of these dyes” (priority 2001, published 2003).

Data set [1] is described as follows: Solubility comparison in chloroform (chloroform added to 0.1 g dye until full solubility). The data set is classed as physicochemical. The protocol: Solubility Comparison of the Claimed compound and the Prototype
Two mixtures were prepared for comparison. The first one contained a dye prepared as per Example 1 by taking 0.1 g of the dye and adding chloroform until full solubility. The second mixture was prepared using 0.1 g of 6-methoxy-14H-anthra(2,1,9-mna)thioxanthene-14-one dye and also adding chloroform until its full solubility. At the end, 30 ml of chloroform was required to solute 0.1 g of the dye in the first mixture while 120 ml of the chloroform was required to solute the same amount of dye in case of the prototype.

For data set [2] the following is noted: colorant described by Carlini et al.; cited from earlier work.

Read-outs that look alike come from different tables or passages of the source.

Take `COc1cc2c3ccccc3c(=O)c3ccc4c5ccccc5sc1c4c32` [6-methoxy-14H-anthra(2,1,9-mna)thioxanthene-14-one]: the “chloroform required to solute 0.1 g of the dye” value in data set [1] was found to be 120 mL. The “solubility in organic solvents and polymer materials” value in data set [2] was “poorly soluble”.

As for “6-n-Octyloxy-14H-anthra(2,1,9 mna)thioxanthene-14-one [Example 1]”, the “chloroform required to solute 0.1 g of the dye” value in data set [1] (0.1 g dye, chloroform added until full solubility) stood at 30 mL. In addition, the “improvement in solubility in chloroform versus prototype” value in data set [1] (claimed dye vs 6-methoxy prototype, chloroform) is listed as “four-fold”.
